# From patent US7452523B2 (priority 2004, dated 2008)
# Like-named read-outs stand apart in the source and are kept apart here.
# Key:
# chronic refractory cough = settings: 3 ml of 1% nebulized twice a day 6-10 weeks, with other drugs; cited from earlier work
# capsaicin-induced cough = settings: lignocaine 20 mg, alone or with adrenaline; cited from earlier work
# cough [1] = settings: cited from earlier work
# cough [2] = settings: cited from earlier work; remark: listed apart in the source
# [3] = tested on: mild to moderate asthma patients; settings: for incidence of oropharyngeal numbing, noted at least once: 12 week study
# [4] = tested on: patient with persistent refractory tussive syncope; settings: 1 ml of 1% nebulized every 4 hours for 10 days, with other anti-tussive drugs; cited from earlier work
# [5] = tested on: patients suffering from cough
# [6] = tested on: cough responses in guinea pigs; settings: cited from earlier work
# cough [7] = settings: nebulized before fibreoptic bronchoscopy; cited from earlier work
# [8] = tested on: persistent cough after stellate ganglion block; settings: 1 ml of 2% in 2 ml normal saline, nebulized; cited from earlier work
smiles,measurement,setting,value
"CCN(CC)CC(=O)Nc1c(C)cccc1C [lidocaine, acetamide 2-(diethylamino)-N-(2,6-dimethylphenyl)]",treatment of refractory cough,chronic refractory cough,effective
same,coughing,capsaicin-induced cough,significantly reduced coughing
same,anesthesia of oropharynx,"cough [1]; 10 ml of 4%, about 30 minutes",substantial anesthesia of oropharynx
same,duration of cough suppression,"cough [1]; after the first treatment, 10 ml of 4%",about 9 weeks
same,duration of cough suppression,cough [1]; after the second administration,7.5 weeks
same,cough,"cough [2]; 10 to 20 mg every 4-6 hours, albuterol pretreatment",abolished cough
same,bronchoconstriction,cough [2]; 10 to 20 mg every 4-6 hours,not bronchoconstriction
same,bronchospasm on administration,cough [2]; in vivo,triggers bronchospasm
same,patients with one or more respiratory AEs,[3]; 10 mg (16/55),29%
same,"incidence of oropharyngeal numbing, noted at least once",[3]; 10 mg (22/55),40%
same,patients with at least one adverse event,"[3]; 10 mg twice daily, 12 weeks (39/55)",71%
same,"incidence of oropharyngeal numbing, noted at least once",[3]; 40 mg (16/51),31.45%
same,patients with one or more respiratory AEs,[3]; 40 mg (18/51),35%
same,patients with at least one adverse event,"[3]; 40 mg twice daily, 12 weeks (33/51)",65%
same,lung deposition of lidocaine,[3]; compared with previous delivery,increased two- to three-fold
same,loss of gag reflex,"[3]; human, in vivo",No loss of gag reflex
same,reports of bronchospasm upon lidocaine delivery,"[3]; human, in vivo",no reports of bronchospasm
same,tracheal aspiration of food or liquid,"[3]; human, in vivo",No case
same,syncopal episodes,[4],able to resolve syncopal episodes
same,"symptoms of cough patients sensitive to smoke, dust, airway pollution",[5]; 10 mg or 40 mg inhaled twice daily,substantial improvement of their symptoms
same,suppression of severe chronic cough,"[5]; 16 mg lung dose delivered as 40 mg/1 ml saline, less than 2 minutes",very efficacious
same,"cough in cystic fibrosis, bronchiectasis or other suppurative pulmonary disease",[5]; aerosolized,successful in suppressing the cough
same,tolerability and safety of aerosol,[5]; formulation pH between 5.5 and 7.0,well tolerated and safe
same,efficacy in seasonal non-severe cough,[5]; three mg delivered to the lung,efficacious
same,total number of coughs induced by capsaicin,[6]; 10 to 30 mg/ml,reduced the total number of coughs
same,onset of the first cough,[6]; aerosol 0.1 to 10 mg/ml,delay onset of the first cough
same,time course of cough responses,[6]; aerosol 0.1 to 10 mg/ml,no significant effect
same,total number of coughs,[6]; aerosol 0.1 to 10 mg/ml,reduce the total number of coughs
same,time to cough suppression,cough [7],10 to 15 min
same,treatment of persistent cough,[8],Treatment was achieved
